Reference: US20030203890A1 (priority 2001, published 2003)
Where two headings read alike, the source gives them in different places. Values belong to the compound of their own block, whether it stands above or below them.

Legend:
cavernous nerve = assay: Intracavernosal pressure (ICP) response to electrostimulation after cavernous nerve crush injury; type: in vivo, Sprague-Dawley rats; conditions: for ICP response, Control side: control (intact) side; for ICP response, Control side / ICP response, Crush side: 1 day following R-cavernous nerve crush, i.p., FK506 1 mg/kg, Compound 153 15 mg/kg, +/- sem; for ICP response, Crush side: crush (injured) side
Procedure: (§1) Cavernous nerve injury was performed in 12 week old Sprague-Dawley rats by crushing the right cavernous nerve for 3×15 seconds with a fine tip forceps. The rats were treated with saline or Compound 153 (15 mg/kg i.p.) just prior to nerve crush. The right and left major pelvic ganglia were processed for nNOS immunoreactivity. Intracavernosal pressure (ICP) responses to electrostimulation of the right (injured) and left (intact) cavernous nerves were recorded for each animal at 24 hours or 7 days post injury.

sciatic nerve = conditions: rats with crushed sciatic nerves; Gold et al. 1994/1995, Steiner et al. 1997; cited from earlier work
FKBP12 = FKBP12 (Homo sapiens, UniProt P62942); assay: K1 test procedure: inhibition of peptidyl-prolyl isomerase (rotamase) activity of FKBP12, chymotrypsin-coupled assay; type: biochemical
Procedure: The inhibition of the prolyl peptidyl cis-trans isomerase activity of FKBP may be measured as an indicator of this affinity.
The cis-trans isomerization of an alanine-proline bond in a model substrate, N-succinyl-Ala-Ala-Pro-Phe-p-nitroanilide, is monitored spectrophotometrically in a chymotrypsin-coupled assay, which releases paranitroanilide from the trans form of the substrate. The inhibition of this reaction caused by the addition of different concentrations of inhibitor is determined, and the data is analyzed as a change in first-order rate constant as a function of inhibitor concentration to yield the apparent K1 values.
In a plastic cuvette are added […] of ice cold assay buffer (25 mM HEPES, pH 7.8, 100 mM NaCl), […] of FKBP (2.5 mM in 10 mM Tris-Cl pH 7.5, 100 mM NaCl, 1 mM dithiothreitol), […] of chymotrypsin (50 mg/ml in 1 mM HCl) and […] of test compound at various concentrations in dimethyl sulfoxide.

major pelvic ganglia [1] = assay: nNOS immunoreactivity of right and left major pelvic ganglia after cavernous nerve crush; type: in vivo, Sprague-Dawley rats; conditions: FIG. 1; rat right cavernous nerve crush; 15 mg/kg i.p. just prior to nerve crush
Procedure: as §1

major pelvic ganglia [2] = assay: Cresyl Violet staining of right and left major pelvic ganglia after cavernous nerve crush; type: in vivo, Sprague-Dawley rats; conditions: FIG. 2; rat right cavernous nerve crush
[3] = apparent Ki, rotamase inhibition, Table XLI, Formulas I to XIV, read-out: Ki
[4] = relative potency ranking, Table XLII, Formulas XV to XXIV, read-out: Ki
[5] = apparent Ki, rotamase inhibition, Table XLIII, Formulas XXV to XXIX, read-out: K1

Chain of FKBP12 (P62942 whole entry, species assumed): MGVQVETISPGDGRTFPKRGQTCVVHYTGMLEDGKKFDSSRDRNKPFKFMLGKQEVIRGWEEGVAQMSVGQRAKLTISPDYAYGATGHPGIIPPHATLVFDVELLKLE

Compound: C=CC[C@@H]1/C=C(\C)C[C@H](C)C[C@H](OC)[C@H]2O[C@@](O)(C(=O)C(=O)N3CCCC[C@H]3C(=O)O[C@H](/C(C)=C/[C@@H]3CC[C@@H](O)[C@H](OC)C3)[C@H](C)[C@@H](O)CC1=O)[C@H](C)C[C@@H]2OC [FK506, reference compound]
ICP response, Control side (cavernous nerve): 36.9 +/− 7.7 | ICP response, Crush side (cavernous nerve): 32.0 +/− 6.7

Compound: CC[C@@H]1/C=C(\C)[C@@H](O)[C@H](C)C[C@H](OC)[C@H]2O[C@@](O)(C(=O)C(=O)N3CCCC[C@H]3C(=O)O[C@H](/C(C)=C/[C@@H]3CC[C@@H](O)[C@H](OC)C3)[C@H](C)[C@@H](O)CC1=O)[C@H](C)C[C@@H]2OC [L-685,818]
nerve regeneration and morphological/functional recovery following sciatic nerve crush (sciatic nerve): as effective as FK506

Compound: O=C(C(=O)N1CCC[C@H]1C(=O)SCCCCc1ccccc1)C1CCCCC1 [compound 33]
Ki (FKBP12; [3]): 1700 nM

Compound: CCC(C)(C)C(=O)C(=O)N1CCC[C@H]1C(=O)SCCCc1cccc2ccccc12 [compound 47]
Ki (FKBP12; [3]): 21 nM

Ki (FKBP12; [3]): 225 nM
Compound: CCC(C)(C)C(=O)C(=O)N1CCC[C@H]1C(=O)OCCCc1ccc[n+]([O-])c1 [compound 95]

Ki (FKBP12; [4]): 1 to 50 nM
Compound: CCC(C)CNC(=O)N1CCC[C@H]1C(=O)SCCCc1cccnc1 (stereo partly drawn) [compound 101, 3-(3-Pyridyl)-1-propylmercaptyl 2S-1-[(2-methylbutyl)carbamoyl]pyrrolidine-2-carboxylate]

Ki (FKBP12; [4]): 51 to 200 nM
Compound: CCC(C)(C)NC(=O)N1CCC[C@H]1C(=O)SCCCc1cccnc1 [compound 102]

Ki (FKBP12; [4]): 51 to 200 nM
Compound: COc1ccc(CCCSC(=O)C2CCCN2C(=S)NC2CCCCC2)cc1 (stereo not shown) [compound 105]

Ki (FKBP12; [4]): 1 to 50 nM
Compound: CCC(C)(C)NC(=S)N1CCCC1C(=O)SCCCc1cccnc1 (stereo not shown) [compound 109]

Ki (FKBP12; [4]): 1 to 50 nM
Compound: CCC(C)(C)NC(=O)N1CCCC1C(=O)SCCC(c1ccccc1)c1ccccc1 (stereo not shown) [compound 110]

Ki (FKBP12; [4]): 1 to 50 nM
Compound: O=C(SC(CCc1ccccc1)CCc1ccccc1)C1CCCCN1C(=O)NC1CCCCC1 (stereo not shown) [compound 114]

Ki (FKBP12; [4]): 51 to 200 nM
Compound: COc1ccc(CCCSC(=O)[C@@H]2CCCN2S(=O)(=O)c2ccccc2)cc1 [compound 120, 3-(para-Methoxyphenyl)-1-propylmercaptyl(2S)-N-(benzenesulfonyl)pyrrolidine-2-carboxylate]

Ki (FKBP12; [4]): 51 to 200 nM
Compound: COc1ccc(CCCSC(=O)[C@@H]2CCCN2S(=O)(=O)Cc2ccccc2)cc1 [compound 121, 3-(para-Methoxyphenyl)-1-propylmercaptyl(2S)-N-(a-toluenesulfonyl)pyrrolidine-2-carboxylate]

Ki (FKBP12; [4]): 201 to 500 nM
Compound: COc1ccc(CCCSC(=O)[C@@H]2CCCN2S(=O)(=O)c2ccc(C)cc2)cc1 [compound 122, 3-(para-Methoxyphenyl)-1-propylmercaptyl(2S)-N-(a-toluenesulfonyl)pyrrolidine-2-carboxylate]

Ki (FKBP12; [5]): 450 nM
Compound: CCC(C)(C)C(=O)C(=O)N1CCC[C@H]1C(=O)OC/C=C/c1cc(OC)ccc1OC [compound 151, 3-(2,5-dimethoxyphenyl)-1-prop-2-(E)-enyl (2S)-1-(3,3-dimethyl-1,2-dioxopentyl)-2-pyrrolidine-carboxylate]

Compound: CCC(C)(C)C(=O)C(=O)N1CCC[C@H]1C(=O)OCCCc1cccnc1 [compound 153, 3-(3-Pyridyl)-1-propyl (2S)-1-(3,3-dimethyl-1,2-dioxopentyl)-2-pyrrolidinecarboxylate]
effect of administration on crushed cavernous nerves (cavernous nerve; Example 30, rats, 15 mg/kg i.p. just prior to nerve crush): regenerate the penile cavernous nerve | ICP response, Control side (cavernous nerve): 42.8 +/− 1.9 | ICP response, Crush side (cavernous nerve): 42.7 +/− 2.2 | effect on the right and left major pelvic ganglia as processed for nNOS immunoreactivity (major pelvic ganglia [1]): protective effect | effect on the right and left major pelvic ganglia as processed for Cresyl Violet staining (major pelvic ganglia [2]): protective effect

Ki (FKBP12; [5]): 150 nM
Compound: CC1(C)COC(=O)CCCCCCCCCCCOC(=O)[C@@H]2CCCCN2C(=O)C1=O [compound 186, (24aS)-17,17-dimethylperhydropyrido[2,1-c] [1,9,4]dioxazacyclohenicosine-1,14,18,19-tetraone]
